Data: patent US5459064A, “Protease” (Shionogi & Co., Ltd., priority 1990, dated 1995)
Residues, ends and D or L forms follow the SMILES beside them. *: point of attachment. Cbz = O=C(OCc1ccccc1)*; CH2Cl = ClC*

Tests used:
[1] = target: BLase (the present enzyme) (Bacillus licheniformis, UniProt P80057); test: Effect of inhibitors on the present enzyme; format: biochemical, Bacillus licheniformis ATCC No. 14580
oxidized insulin B chain = test: Cleavage of oxidized insulin B chain, HPLC peptide mapping; format: biochemical; settings: 50 mM ammonium bicarbonate pH 7.8, enzyme/substrate 1/100 (W/W)

Chain of BLase (the present enzyme) (P80057 95-316): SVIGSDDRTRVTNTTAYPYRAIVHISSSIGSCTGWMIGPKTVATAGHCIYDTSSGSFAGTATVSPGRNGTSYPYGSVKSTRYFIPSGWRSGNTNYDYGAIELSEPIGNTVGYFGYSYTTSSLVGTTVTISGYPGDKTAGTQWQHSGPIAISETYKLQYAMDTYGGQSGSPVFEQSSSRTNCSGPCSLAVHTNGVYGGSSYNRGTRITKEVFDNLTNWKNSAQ

Q: For `O=C(O)CN(CCN(CC(=O)O)CC(=O)O)CC(=O)O` [EDTA], which “Inhibition of the present enzyme” value [1] is on record?
A: partially inhibited

Q: And the “Inhibitory effect after addition of metal ions” value [1]?
A: completely nullified

Q: What about the Maximum inhibition ratio [1] of the same compound?
A: approximately 72%

Q: “V8 protease: Serine protease from the V8 strain of Staphylococcus aureus, cleaves at the carboxyl terminal of glutamic acid residues” was tested. Which “Action on oxidized insulin B chain (peptide mapping)” value (oxidized insulin B chain) did it give?
A: the peptide bonds at the carboxyl termini of the glutamic acid residues were cleaved

Q: For `CC(C)C[C@H](NC(=O)[C@H](Cc1ccccc1)NC(=O)OCc1ccccc1)C(=O)N[C@@H](CCC(=O)O)C(=O)CCl` [Z-Phe Leu Glu CH2 Cl] (Cbz-Phe-Leu-Glu-CH2Cl), which “Inhibition of the present enzyme” value [1] is on record?
A: completely inhibited
